Among the data in patent publication US8956999B2, “Herbicides” (Syngenta Limited, priority 2007, dated 2015) are pest or weed control values, retold here.

SMILES strings stand for the structures.

Type in all cases: in vivo
The subject of assay [1] is Alopecurus myosuroides (ALOMY). In words: Example B pre-emergence herbicidal test, glasshouse. The conditions noted are these: 312 h, rate 250 g/ha, evaluated after 13 days, 100=total damage to plant, 0=no damage to plant. As for the experimental part:
(§1) Seeds of a variety of test species were sown in standard soil in pots. After cultivation for one day (pre-emergence) or after 8 days cultivation (post-emergence) under controlled conditions in a glasshouse (at 24/16° C., day/night; 14 hours light; 65% humidity), the plants were sprayed with an aqueous spray solution derived from the formulation of the technical active ingredient in acetone/water (50:50) solution containing 0.5% Tween 20 (polyoxyethelyene sorbitan monolaurate, CAS RN 9005-64-5). The test plants were then grown in a glasshouse under controlled conditions in a glasshouse (at 24/16° C., day/night; 14 hours light; 65% humidity) and watered twice daily. After 13 days for pre and post-emergence, the test was evaluated (100=total damage to plant; 0=no damage to plant). Test Plants: Alopecurus myosuroides (ALOMY), Avena fatua (AVEFA), Setaria faberi (SETFA), Echinochloa crus-galli (ECHCG), Solanum nigrum (SOLNI) and Amaranthus retoflexus (AMARE)

In assay [2] the test system is Amaranthus retoflexus (AMARE). Described as above. To be noted: Amaranthus retroflexus, 312 h, rate 250 g/ha, evaluated after 13 days, 100=total damage to plant, 0=no damage to plant. Here is the method: as §1
In assay [3] the test system is Avena fatua (AVEFA). The description is as above. The conditions noted are these: 312 h, rate 250 g/ha, evaluated after 13 days, 100=total damage to plant, 0=no damage to plant. Here is the method:
as §1

The test system of assay [4] is Echinochloa crus-galli (ECHCG). The assay is described as above. The conditions noted are these: Echinochloa crus-galli, 312 h, rate 250 g/ha, evaluated after 13 days, 100=total damage to plant, 0=no damage to plant, read-out: Pre-Emergence Activity ECHGG. As for the experimental part:
as §1

The test system of assay [5] is Setaria faberi (SETFA). The assay is described as above. To be noted: Setaria faberi, 312 h, rate 250 g/ha, evaluated after 13 days, 100=total damage to plant, 0=no damage to plant, read-out: Pre-Emergence Activity SEFTA. As for the experimental part:
as §1

In assay [6] the test system is Alopecurus myosuroides (ALOMY). In words: Example B post-emergence herbicidal test, glasshouse. The conditions noted are these: 312 h, rate 250 g/ha, evaluated after 13 days, read-out: Post-Emergence Activity ALOMY (100=total damage to plant; 0=no damage to plant). As for the experimental part:
as §1

Assay [7] has as its system Amaranthus retoflexus (AMARE). Described as above. To be noted: Amaranthus retroflexus, 312 h, rate 250 g/ha, evaluated after 13 days, read-out: Post-Emergence Activity AMARE (100=total damage to plant; 0=no damage to plant). As for the experimental part: as §1
The test system of assay [8] is Avena fatua (AVEFA). The assay is described as above. To be noted: 312 h, rate 250 g/ha, evaluated after 13 days, read-out: Post-Emergence Activity AVEFA (100=total damage to plant; 0=no damage to plant). Here is the method:
as §1

Assay [9] concerns Echinochloa crus-galli (ECHCG). The description is as above. To be noted: 312 h, rate 250 g/ha, evaluated after 13 days, read-out: Post-Emergence Activity ECHGG (100=total damage to plant; 0=no damage to plant). As for the experimental part:
as §1

Assay [10] deals with Setaria faberi (SETFA). Described as above. The conditions noted are these: 312 h, rate 250 g/ha, evaluated after 13 days, read-out: Post-Emergence Activity SEFTA (100=total damage to plant; 0=no damage to plant). Here is the method: as §1

As for `CCc1sc(-c2ccc(OC(F)F)cc2)nc1C1C(=O)C(C)(C)OC(C)(C)C1=O` [Compound T62], the pest or weed control at 250 g/ha in assay [1] was 90%; in assay [2], 0%; in assay [3], 0%; in [4], 60%; in [5], 100%; in [6] it was 100%. For the same molecule, the pest or weed control at 250 g/ha in [7] was 0%; in [8] it was 100%; in assay [9], 100%; in assay [10], 100%.

As for `CCc1sc(-c2ccc(Cl)cc2F)nc1C1C(=O)C(C)(C)OC(C)(C)C1=O` [Compound T47], the pest or weed control at 250 g/ha worked out at 70% in assay [1]; 20% in [2]; 90% in assay [3]; 70% in assay [4]; 90% in assay [5]; 100% in assay [6]. The pest or weed control at 250 g/ha in [7] was found to be 0%; in assay [8], 100%; in assay [9] it was 100%; in assay [10], 100%.

Regarding `CC(=O)OC1=C(c2nc(-c3ccc(Br)cn3)sc2C)C(=O)C(C)(C)OC1(C)C` [Compound P3], the pest or weed control at 250 g/ha in [1] came to 20%; in assay [2], 0%; in assay [3], 0%; in assay [4] it was 30%; in assay [5], 20%; in [6], 50%. The pest or weed control at 250 g/ha in assay [7] was 0%; in assay [8], 30%; in [9], 90%; in assay [10], 90%.

Regarding `Cc1cnc(-c2ccc(Cl)cc2)nc1C1C(=O)C(C)(C)OC(C)(C)C1=O` [Compound T71, 4-[2-(4-chlorophenyl)-5-methylpyrimidin-4-yl]-2,2,6,6-tetramethylpyran-3,5-dione], the pest or weed control at 250 g/ha in [1] stood at 20%; in assay [2] it was 0%; in assay [3] it was 0%; in assay [4] it was 60%; in assay [5], 50%; in assay [6], 20%. The pest or weed control at 250 g/ha came out at 0% in [7], 40% in assay [8], 90% in assay [9] and 90% in [10].

Consider `Cc1sc(-c2ccc(I)cc2)nc1C1C(=O)C(C)(C)OC(C)(C)C1=O` [Compound T51], for which the pest or weed control at 250 g/ha stood at 40% in assay [1]; 0% in [2]; 80% in [3]; 60% in assay [4]; 100% in assay [5]; 100% in assay [6]. In addition, the pest or weed control at 250 g/ha in [7] is 0%; in assay [8], 90%; in [9] it was 90%; in [10], 100%.

On to `Cc1sc(-c2ccc(Cl)cc2F)nc1C1C(=O)C(C)(C)C(=O)C(C)(C)C1=O` [Compound T9], for which the pest or weed control at 250 g/ha in assay [1] came out at 0%; in assay [2], 0%; in [3], 0%; in [4] it was 20%; in [5] it was 40%; in assay [6], 90%. Besides, the pest or weed control at 250 g/ha in assay [7] is 0%; in assay [8], 40%; in assay [9] it was 90%; in assay [10], 80%.
